US8404733B2, “Laser enhanced amino acid blend and use of same to regenerate active myocardial tissue” (priority 2010, dated 2013)

System: murine macrophages
Assay: TNF-alpha production (ELISA) by Echinacea activated murine macrophages
Format: cell-based
Conditions: 24 hours; amino acid samples 20 mg/ml together with Echinacea; LPS 1 ng/ml; Negative Control 215 +/- 13.7
Source text: The rationale for the use of this process of laser enhancement is the result of an in vitro study using a similar short wavelength laser treatment. In this study, murine macrophages that were activated with Echinacea to simulate an irritated immune system were then fed the above formula of amino acids in the untreated and laser treated conditions. […] The specific details of the in vitro study are as follows. 20 grams of the amino acid blend as detailed above was used for each of the control and treated amino acid samples. The Untreated Sample was not treated. The Treated Sample was exposed to laser radiation from a 458 nm pumped argon gas laser with a primary power of 16.5 mW adjusted through the optics to a power level of 5.1 mW The duration of treatment of the sample was 30 seconds. The following bioassays were performed. A standardized Echinacea sample alone or with 20 mg/ml of the Untreated or Treated Sample amino acids were incubated in tissue culture media of triplicate wells of murine macrophages. […] The results were as follows and are expressed as the mean TNF-alpha production plus or minus the statistical standard deviation (SD): Using a Student's 2-tailed t-test, the Echinacea Stimulated Sample was compared to the results of Echinacea plus the Untreated Amino Acid Sample or the Treated Amino Acid Sample.

Substance: lipopolysaccharide [LPS]
- TNF-alpha +/- SD (mean TNF-alpha production): 2863 +/− 185.7
